Several values for one entry are separate records, joined by “and”; a condition that tells them apart may be missing. Identical values can stand only once.
Test: excess molar enthalpy (molar enthalpy of mixing); xn = mol fraction of the nth substance listed
Details: Liquid

O=C=O [carbon dioxide] + O
Details | excess molar enthalpy
323.1 K, 2060 kPa, x1 = 0.0032 | -0.0113 kcal/mol
323.1 K, 2060 kPa, x1 = 0.0037 | -0.0131 kcal/mol
323.1 K, 2060 kPa, x1 = 0.004 | -0.0138 kcal/mol
323.1 K, 2060 kPa, x1 = 0.0042 | -0.0152 kcal/mol
323.1 K, 2060 kPa, x1 = 0.0048 | -0.0168 kcal/mol
323.1 K, 2060 kPa, x1 = 0.0058 | -0.0199 kcal/mol
323.1 K, 2060 kPa, x1 = 0.006 | -0.022 kcal/mol
323.1 K, 2060 kPa, x1 = 0.0064 | -0.0216 kcal/mol
323.1 K, 2060 kPa, x1 = 0.0079 | -0.0221 kcal/mol and -0.0222 kcal/mol
323.1 K, 2060 kPa, x1 = 0.0106 | -0.0228 kcal/mol
323.1 K, 2060 kPa, x1 = 0.0126 | -0.0224 kcal/mol
323.1 K, 2060 kPa, x1 = 0.0158 | -0.0228 kcal/mol
323.1 K, 2060 kPa, x1 = 0.021 | -0.0223 kcal/mol
323.1 K, 2060 kPa, x1 = 0.0311 | -0.0225 kcal/mol
323.1 K, 5100 kPa, x1 = 0.0052 | -0.0162 kcal/mol
323.1 K, 5100 kPa, x1 = 0.0064 | -0.02 kcal/mol
323.1 K, 5100 kPa, x1 = 0.0084 | -0.0261 kcal/mol
323.1 K, 5100 kPa, x1 = 0.0092 | -0.029 kcal/mol
323.1 K, 5100 kPa, x1 = 0.0101 | -0.0323 kcal/mol
323.1 K, 5100 kPa, x1 = 0.0105 | -0.0331 kcal/mol
323.1 K, 5100 kPa, x1 = 0.011 | -0.0344 kcal/mol
323.1 K, 5100 kPa, x1 = 0.012 | -0.0373 kcal/mol
323.1 K, 5100 kPa, x1 = 0.0125 | -0.0394 kcal/mol
323.1 K, 5100 kPa, x1 = 0.0136 | -0.0412 kcal/mol
323.1 K, 5100 kPa, x1 = 0.0138 | -0.0417 kcal/mol
323.1 K, 5100 kPa, x1 = 0.0147 | -0.0429 kcal/mol
323.1 K, 5100 kPa, x1 = 0.0151 | -0.0441 kcal/mol
323.1 K, 5100 kPa, x1 = 0.0155 | -0.0438 kcal/mol
323.1 K, 5100 kPa, x1 = 0.0156 | -0.0448 kcal/mol
323.1 K, 5100 kPa, x1 = 0.0172 | -0.0438 kcal/mol
323.1 K, 5100 kPa, x1 = 0.0181 | -0.0441 kcal/mol
323.1 K, 5100 kPa, x1 = 0.019 | -0.0454 kcal/mol
323.1 K, 5100 kPa, x1 = 0.0201 | -0.0438 kcal/mol
323.1 K, 5100 kPa, x1 = 0.0208 | -0.0453 kcal/mol
323.1 K, 5100 kPa, x1 = 0.0254 | -0.0443 kcal/mol
323.1 K, 10530 kPa, x1 = 0.01 | -0.0178 kcal/mol
323.1 K, 10530 kPa, x1 = 0.012 | -0.0208 kcal/mol
323.1 K, 10530 kPa, x1 = 0.0132 | -0.0243 kcal/mol
323.1 K, 10530 kPa, x1 = 0.0165 | -0.0301 kcal/mol
323.1 K, 10530 kPa, x1 = 0.0197 | -0.0321 kcal/mol
323.1 K, 10530 kPa, x1 = 0.023 | -0.0348 kcal/mol
323.1 K, 10530 kPa, x1 = 0.0249 | -0.0347 kcal/mol
323.1 K, 10530 kPa, x1 = 0.026 | -0.037 kcal/mol
323.1 K, 10530 kPa, x1 = 0.0323 | -0.0368 kcal/mol
323.1 K, 10530 kPa, x1 = 0.0324 | -0.0368 kcal/mol
323.1 K, 10530 kPa, x1 = 0.0446 | -0.0361 kcal/mol
323.1 K, 10530 kPa, x1 = 0.0508 | -0.0359 kcal/mol
323.1 K, 10530 kPa, x1 = 0.0625 | -0.0354 kcal/mol
323.1 K, 10530 kPa, x1 = 0.0627 | -0.0356 kcal/mol
323.1 K, 14200 kPa, x1 = 0.0105 | -0.0142 kcal/mol
323.1 K, 14200 kPa, x1 = 0.0125 | -0.0168 kcal/mol
323.1 K, 14200 kPa, x1 = 0.0139 | -0.0189 kcal/mol
323.1 K, 14200 kPa, x1 = 0.0173 | -0.0225 kcal/mol
323.1 K, 14200 kPa, x1 = 0.0207 | -0.025 kcal/mol
323.1 K, 14200 kPa, x1 = 0.0241 | -0.0268 kcal/mol
323.1 K, 14200 kPa, x1 = 0.0248 | -0.027 kcal/mol
323.1 K, 14200 kPa, x1 = 0.0261 | -0.0277 kcal/mol
323.1 K, 14200 kPa, x1 = 0.0274 | -0.0279 kcal/mol
323.1 K, 14200 kPa, x1 = 0.0287 | -0.0288 kcal/mol
323.1 K, 14200 kPa, x1 = 0.0307 | -0.029 kcal/mol
323.1 K, 14200 kPa, x1 = 0.034 | -0.0284 kcal/mol
323.1 K, 14200 kPa, x1 = 0.047 | -0.0283 kcal/mol
323.1 K, 14200 kPa, x1 = 0.0658 | -0.0279 kcal/mol
323.1 K, 20200 kPa, x1 = 0.011 | -0.0128 kcal/mol
323.1 K, 20200 kPa, x1 = 0.0147 | -0.0167 kcal/mol
323.1 K, 20200 kPa, x1 = 0.0183 | -0.0207 kcal/mol
323.1 K, 20200 kPa, x1 = 0.0197 | -0.0216 kcal/mol
323.1 K, 20200 kPa, x1 = 0.021 | -0.0236 kcal/mol
323.1 K, 20200 kPa, x1 = 0.0239 | -0.0236 kcal/mol
323.1 K, 20200 kPa, x1 = 0.0253 | -0.0238 kcal/mol
323.1 K, 20200 kPa, x1 = 0.0274 | -0.0246 kcal/mol
323.1 K, 20200 kPa, x1 = 0.0288 | -0.0248 kcal/mol
323.1 K, 20200 kPa, x1 = 0.0359 | -0.0249 kcal/mol
323.1 K, 20200 kPa, x1 = 0.0427 | -0.0252 kcal/mol
323.1 K, 20200 kPa, x1 = 0.0461 | -0.0249 kcal/mol
323.1 K, 20200 kPa, x1 = 0.0494 | -0.0251 kcal/mol
323.1 K, 20200 kPa, x1 = 0.0692 | -0.0247 kcal/mol
373.1 K, 5050 kPa, x1 = 0.002 | -0.00308 kcal/mol
373.1 K, 5050 kPa, x1 = 0.0025 | -0.00418 kcal/mol
373.1 K, 5050 kPa, x1 = 0.003 | -0.00476 kcal/mol
373.1 K, 5050 kPa, x1 = 0.004 | -0.00614 kcal/mol
373.1 K, 5050 kPa, x1 = 0.0045 | -0.00686 kcal/mol
373.1 K, 5050 kPa, x1 = 0.005 | -0.00767 kcal/mol
373.1 K, 5050 kPa, x1 = 0.006 | -0.00901 kcal/mol
373.1 K, 5050 kPa, x1 = 0.007 | -0.01 kcal/mol
373.1 K, 5050 kPa, x1 = 0.0075 | -0.0109 kcal/mol
373.1 K, 5050 kPa, x1 = 0.008 | -0.0112 kcal/mol
373.1 K, 5050 kPa, x1 = 0.009 | -0.0112 kcal/mol
373.1 K, 5050 kPa, x1 = 0.01 | -0.0113 kcal/mol and -0.011 kcal/mol
373.1 K, 5050 kPa, x1 = 0.011 | -0.0113 kcal/mol
373.1 K, 5050 kPa, x1 = 0.0125 | -0.0109 kcal/mol
373.1 K, 5050 kPa, x1 = 0.014 | -0.011 kcal/mol
373.1 K, 5050 kPa, x1 = 0.0149 | -0.0103 kcal/mol
373.1 K, 5050 kPa, x1 = 0.0154 | -0.0106 kcal/mol
373.1 K, 5050 kPa, x1 = 0.0174 | -0.00997 kcal/mol
373.1 K, 5050 kPa, x1 = 0.0179 | -0.0097 kcal/mol
373.1 K, 5050 kPa, x1 = 0.0198 | -0.00939 kcal/mol
373.1 K, 10080 kPa, x1 = 0.0068 | -0.00801 kcal/mol
373.1 K, 10080 kPa, x1 = 0.0081 | -0.0088 kcal/mol
373.1 K, 10080 kPa, x1 = 0.0094 | -0.0104 kcal/mol
373.1 K, 10080 kPa, x1 = 0.0101 | -0.0114 kcal/mol
373.1 K, 10080 kPa, x1 = 0.0108 | -0.0122 kcal/mol
373.1 K, 10080 kPa, x1 = 0.0134 | -0.0147 kcal/mol
373.1 K, 10080 kPa, x1 = 0.0135 | -0.0145 kcal/mol
373.1 K, 10080 kPa, x1 = 0.02 | -0.0151 kcal/mol
373.1 K, 10080 kPa, x1 = 0.0201 | -0.0148 kcal/mol
373.1 K, 10080 kPa, x1 = 0.0228 | -0.0142 kcal/mol
373.1 K, 10080 kPa, x1 = 0.0263 | -0.0141 kcal/mol
373.1 K, 10080 kPa, x1 = 0.0265 | -0.0145 kcal/mol
373.1 K, 10080 kPa, x1 = 0.0294 | -0.0134 kcal/mol
373.1 K, 10080 kPa, x1 = 0.039 | -0.0134 kcal/mol
373.1 K, 10080 kPa, x1 = 0.0516 | -0.0122 kcal/mol
373.1 K, 19500 kPa, x1 = 0.0037 | -0.0016 kcal/mol
373.1 K, 19500 kPa, x1 = 0.0044 | -0.00182 kcal/mol
373.1 K, 19500 kPa, x1 = 0.0051 | -0.00198 kcal/mol
373.1 K, 19500 kPa, x1 = 0.0059 | -0.00225 kcal/mol
373.1 K, 19500 kPa, x1 = 0.0066 | -0.00251 kcal/mol
373.1 K, 19500 kPa, x1 = 0.0081 | -0.00294 kcal/mol
373.1 K, 19500 kPa, x1 = 0.0087 | -0.00335 kcal/mol
373.1 K, 19500 kPa, x1 = 0.0088 | -0.00327 kcal/mol
373.1 K, 19500 kPa, x1 = 0.0095 | -0.00337 kcal/mol
373.1 K, 19500 kPa, x1 = 0.011 | -0.00411 kcal/mol
373.1 K, 19500 kPa, x1 = 0.0123 | -0.00454 kcal/mol
373.1 K, 19500 kPa, x1 = 0.0145 | -0.00464 kcal/mol
373.1 K, 19500 kPa, x1 = 0.0146 | -0.00492 kcal/mol
373.1 K, 19500 kPa, x1 = 0.0159 | -0.00504 kcal/mol
373.1 K, 19500 kPa, x1 = 0.0167 | -0.00492 kcal/mol
373.1 K, 19500 kPa, x1 = 0.0181 | -0.00554 kcal/mol
373.1 K, 19500 kPa, x1 = 0.0182 | -0.00535 kcal/mol
373.1 K, 19500 kPa, x1 = 0.0195 | -0.00564 kcal/mol
373.1 K, 19500 kPa, x1 = 0.0217 | -0.0054 kcal/mol
373.1 K, 19500 kPa, x1 = 0.0218 | -0.0054 kcal/mol
373.1 K, 19500 kPa, x1 = 0.0251 | -0.00531 kcal/mol
373.1 K, 19500 kPa, x1 = 0.0253 | -0.00538 kcal/mol
373.1 K, 19500 kPa, x1 = 0.0265 | -0.00526 kcal/mol
373.1 K, 19500 kPa, x1 = 0.03 | -0.00488 kcal/mol
373.1 K, 19500 kPa, x1 = 0.0521 | -0.00258 kcal/mol
373.1 K, 19500 kPa, x1 = 0.0603 | -0.00186 kcal/mol
373.1 K, 19500 kPa, x1 = 0.0688 | -0.00086 kcal/mol
373.1 K, 19500 kPa, x1 = 0.0691 | -0.00129 kcal/mol
373.1 K, 19500 kPa, x1 = 0.0771 | -0.000478 kcal/mol

— the NIST ThermoML archive (doi:10.1016/j.fluid.2006.06.006)
